Results reported in patent US5110925A, “Pyridazinone derivatives” (Nippon Soda Co., Ltd., priority 1988, dated 1992).
Values after ≈ are worked out from the molar mass of the structure shown.

Assays:
guinea pig left atria = assay: Cardiotonic Action: Electrically Stimulating Isolated Guinea Pig Left Atria; parameters: species or system guinea pig (male Hartley); conditions: Cavia porcellus; concentration causing a 50% increase in contractility; cumulative addition, 30° C.; read-out: contractility of guinea pig left atria EC50
Method: Male Hartley guinea pigs weighing 350-500 g were used.
The hearts were excised from the animals. The left atria were dissected from the hearts and mounted in an organ bath.
The atria were stimulated by square wave pulses of 3 msec duration and a voltage ranging from 1.2-fold to 1.5-fold of the threshold at a frequency of 60/min with an electric stimulator.
Resting tension was adjusted to 0.5 g and contraction was recorded on the Polygraph Systems with a force-displacement transducer.
All preparations were allowed to equilibrate with the bath medium for 90 to 120 min.

Anesthetized Dogs = assay: Cardiotonic Action: Anesthetized Dogs; assay type: in vivo, dog (adult mongrel); conditions: anesthetized dogs; for ED50: Canis lupus familiaris, iv, dose producing a 50% increase in LVdp/dtmax, read-out: LVdp/dtmax ED50; for % Changes in Heart rate / % Changes in Blood pressure: i.v.; for % Changes in Blood pressure: femoral arterial pressure
Method: Adult mongrel dogs of either sex weighing 8 to 15 kg were used.
The animals were anesthetized with sodium pentobarbital (30 mg/kg, i.v.) and maintained by an intravenous infusion of the anesthetic at a rate of 4 mg/kg per hour.
A cuffed endotracheal tube was inserted and an artificial respirator installed. The animals were ventilated with room air in a tidal volume of 20 ml/kg at a rate of 20 brearhs per minute.
Cannulae were inserted into the femoral vein for a falling drop of a physiological saline or for an infusion of the anesthetic, and into the femoral artery for measuring arterial blood pressure with a pressure transducer. Heart rate was recorded with a heart rate counter triggered by the R wave of the electrocardiogram (ECG).
ECG in standard lead II was monitored with a bioelectric amplifier.
Left ventricular pressure was measured with a catheter tip pressure transducer inserted via the right carotid artery into the left ventricle. Left ventricular dp/dtmax was obtained by an electric differentiator.
The compounds were injected through the cannula in the femoral vein at a dose of 0.001-0.3 mg/0.1 ml/kg.

PDE-I = assay: Inhibition of Phosphodiesterase PDE-I; assay type: biochemical, guinea pig (left ventricular muscles); conditions: 1 mM 3H-cAMP substrate
Source text: (§1) The preparation of different forms of cyclic nucleotide phosphodiesterase from guinea pig left ventricular muscles was done by following the procedure of Weishaar, et al. (R. Weishaar, et al., Biochemical Pharmacology, 35, 787-800, 1986) with the minor modified method of Thompson, et al. (W. J. Thompson, et al., Advances in Cyclic Nucleotide Research, 10, 69-92, 1979). Briefly, the three active forms of phosphodiesterase (PDE-I, PDE-II, PDE-III) present in the ventricular muscles were discretely eluted from a DEAE-cellulose column (Whatman, DE-52, .phi. 2.5×20 cm) using a continuous 70-800 mM sodium acetate gradient.
(§2) The phosphodiesterase activity was assayed by minor modifications of the method described by Furutani et al. (Y. Furutani, et al., Journal of Antibiotics, 28, 558-560, 1975). Briefly, 1 mM ^3 H-cAMP was hydrolyzed by the phosphodiesterase and the unhydrolyzed ^3 H-cAMP which was separated from the formed 5'-AMP by a dry alumina (Merck, activity 1, neutral) was counted by a liquid scintillation counter.
(§3) The concentrations causing a 50% inhibition of the phosphodiesterase activity (IC50) were calculated from the concentration-inhibition curves.

PDE-III = target: T1, PDE-III (Cavia porcellus, UniProt H0VIU9); assay: Inhibition of Phosphodiesterase PDE-III; assay type: biochemical, guinea pig (left ventricular muscles); conditions: 1 mM 3H-cAMP substrate; read-out: phosphodiesterase inhibition IC50 PDE-III
T1 construct: different forms of cyclic nucleotide phosphodiesterase from guinea pig left ventricular muscles; from tissue; host or cells: guinea pig left ventricular muscle, DEAE-cellulose fraction
T1 sequence (H0VIU9 1-1132): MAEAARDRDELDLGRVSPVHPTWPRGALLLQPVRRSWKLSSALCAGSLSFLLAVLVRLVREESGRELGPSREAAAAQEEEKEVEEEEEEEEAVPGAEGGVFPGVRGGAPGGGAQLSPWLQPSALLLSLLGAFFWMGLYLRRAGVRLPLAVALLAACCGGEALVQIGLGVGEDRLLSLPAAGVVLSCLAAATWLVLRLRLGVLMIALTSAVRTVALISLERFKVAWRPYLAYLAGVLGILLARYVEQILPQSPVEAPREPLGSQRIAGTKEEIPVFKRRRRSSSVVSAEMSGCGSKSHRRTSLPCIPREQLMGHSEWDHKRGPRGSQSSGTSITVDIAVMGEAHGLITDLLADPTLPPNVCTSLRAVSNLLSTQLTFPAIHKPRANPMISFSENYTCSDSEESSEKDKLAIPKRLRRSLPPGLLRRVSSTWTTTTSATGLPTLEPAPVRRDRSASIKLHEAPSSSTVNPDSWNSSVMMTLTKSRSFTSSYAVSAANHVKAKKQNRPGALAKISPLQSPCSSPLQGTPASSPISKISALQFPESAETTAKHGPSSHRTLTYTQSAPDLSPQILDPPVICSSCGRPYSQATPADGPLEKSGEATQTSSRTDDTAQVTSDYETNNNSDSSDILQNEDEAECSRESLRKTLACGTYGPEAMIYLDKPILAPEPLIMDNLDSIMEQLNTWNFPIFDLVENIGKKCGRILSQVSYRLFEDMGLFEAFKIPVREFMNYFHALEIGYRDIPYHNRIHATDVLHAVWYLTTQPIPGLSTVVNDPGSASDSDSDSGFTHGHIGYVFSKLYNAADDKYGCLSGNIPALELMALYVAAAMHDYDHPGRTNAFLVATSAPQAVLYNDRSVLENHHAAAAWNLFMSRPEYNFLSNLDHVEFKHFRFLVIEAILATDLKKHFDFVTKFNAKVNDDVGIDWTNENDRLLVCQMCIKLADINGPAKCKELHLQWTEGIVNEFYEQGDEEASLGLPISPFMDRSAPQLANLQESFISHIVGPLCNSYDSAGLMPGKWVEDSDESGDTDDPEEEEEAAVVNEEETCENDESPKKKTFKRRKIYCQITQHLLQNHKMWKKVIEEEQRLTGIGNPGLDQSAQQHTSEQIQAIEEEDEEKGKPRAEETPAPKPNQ
Source text: as §1, §2, §3

mice = assay: Acute Toxicity in mice, oral single dose; assay type: in vivo, mouse (male); conditions: male mice, 300 mg/kg, p.o., 7 days observation
Source text: The acute toxicity of the test compounds was studied in male mice after oral administration of a single dose.

PDE-II = target: T2, PDE-II (Cavia porcellus, UniProt A0A286XUV5); assay: Inhibition of Phosphodiesterase PDE-II; assay type: biochemical, guinea pig (left ventricular muscles); conditions: 1 mM 3H-cAMP substrate
T2 construct: different forms of cyclic nucleotide phosphodiesterase from guinea pig left ventricular muscles; from tissue; host or cells: guinea pig left ventricular muscle, DEAE-cellulose fraction
T2 sequence (A0A286XUV5 22-936): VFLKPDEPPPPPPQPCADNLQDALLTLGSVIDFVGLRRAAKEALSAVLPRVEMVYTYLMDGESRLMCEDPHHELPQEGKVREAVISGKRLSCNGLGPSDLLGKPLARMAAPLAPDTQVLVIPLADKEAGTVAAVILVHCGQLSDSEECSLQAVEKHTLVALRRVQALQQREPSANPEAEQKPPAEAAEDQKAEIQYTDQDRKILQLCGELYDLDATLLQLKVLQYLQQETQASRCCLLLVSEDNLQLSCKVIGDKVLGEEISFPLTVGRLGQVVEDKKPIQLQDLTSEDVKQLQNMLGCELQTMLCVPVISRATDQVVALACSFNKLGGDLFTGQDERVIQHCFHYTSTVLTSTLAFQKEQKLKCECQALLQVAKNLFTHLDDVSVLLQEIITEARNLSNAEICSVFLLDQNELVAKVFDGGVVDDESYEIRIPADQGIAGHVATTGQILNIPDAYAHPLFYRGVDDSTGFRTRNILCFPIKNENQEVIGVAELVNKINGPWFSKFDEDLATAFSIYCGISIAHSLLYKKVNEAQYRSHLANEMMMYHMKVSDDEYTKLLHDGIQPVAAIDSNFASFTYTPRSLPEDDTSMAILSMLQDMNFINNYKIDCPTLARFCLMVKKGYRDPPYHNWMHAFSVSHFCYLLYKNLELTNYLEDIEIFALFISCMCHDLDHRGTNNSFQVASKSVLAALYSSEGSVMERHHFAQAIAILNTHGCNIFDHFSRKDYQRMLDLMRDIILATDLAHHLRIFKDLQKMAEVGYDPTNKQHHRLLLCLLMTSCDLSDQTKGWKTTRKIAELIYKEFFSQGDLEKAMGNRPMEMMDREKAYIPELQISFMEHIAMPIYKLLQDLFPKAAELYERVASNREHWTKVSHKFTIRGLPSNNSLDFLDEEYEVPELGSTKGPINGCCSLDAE
Source text: as §1, §2, §3

| SMILES | EC50 (guinea pig left atria) [µg/mL] | ED50 (Anesthetized Dogs) [mg/kg] | % Changes in Heart rate (Anesthetized Dogs) [%] | % Changes in Blood pressure (Anesthetized Dogs) [%] | IC50 (PDE-I) [µM] | IC50 (PDE-III) [nM] | mortality (number of dead animals/number of treated animals) (mice) | IC50 (PDE-II) [µM] |
| --- | --- | --- | --- | --- | --- | --- | --- | --- |
| O=C1CCC(c2ccc(-n3ccnc3)cc2)=NN1 [CI-914, reference compound] | 1.8 (≈ 7.49 µM) | 0.095 | 9 | -10 | > 1000 | 5700 | 2/3 | – |
| CC1(C)CC(=O)C=C(Nc2ccc(C3=NNC(=O)CC3)cc2)C1 [Compound 1] | 0.23 (≈ 0.739 µM) | 0.043 | 5 | -1 | 900 | 1200 | 0/3 | 250 |
| O=C1C=C(Nc2ccc(C3=NNC(=O)CC3)cc2)CC1 [Compound 2, 4,5-Dihydro-6-((4-(3-oxo-1-cyclopentenyl)amino)phenyl)-3(2H)-pyridazinone] | 0.11 (≈ 0.408 µM) | 0.006 | 6 | -2 | 1000 | 1200 | 0/3 | 235 |
| O=C1C=C(Nc2ccc(C3=NNC(=O)CC3)cc2)CCC1 [Compound 3] | 0.23 (≈ 0.812 µM) | 0.009 | 2 | -4 | 210 | 470 | 0/3 | 180 |
| CC1=C(Nc2ccc(C3=NNC(=O)CC3)cc2)CCC1=O [Compound 4, 4,5-Dihydro-6-(4-((2-methyl-3-oxo-1-cyclopentenyl)-amino)phenyl)-3(2H)-pyridazinone] | 0.24 (≈ 0.847 µM) | 0.012 | 5 | -2 | 610 | 2000 | 1/3 | 330 |
| CC1CC(=O)NN=C1c1ccc(NC2=CC(=O)CC2)cc1 (centres unmarked) [Compound 14, 4,5-Dihydro-6-(4-((3-oxo-1-cyclopentenyl)amino)phenyl)-5-methyl-3(2H)-pyridazinone] | 0.12 (≈ 0.424 µM) | 0.008 | 13 | -11 | 310 | 880 | – | 260 |
| CC1=C(Nc2ccc(C3=NNC(=O)CC3C)cc2)CCC1=O (centres unmarked) [Compound 15, 4,5-Dihydro-6-(4-((2-methyl-3-oxo-1-cyclopentenyl)amino)phenyl)-5-methyl-3(2H)-pyridazinone] | 0.054 (≈ 0.182 µM) | 0.012 | 19 | -18 | > 1000 | 590 | – | 940 |
| O=C1C=C(Nc2ccc3c(c2)OCC2CC(=O)NN=C32)CC1 (centres unmarked) [Compound 24, 8-(3-oxo-1-cyclopentenylamino)-3,4,4a,5-tetrahydro-2H-(1)benzopyrano(4,3-c)-pyridazinon-3-one] | – | 0.022 | 4 | -7 | > 100 | 4100 | – | 100 |
| CC1=C(Nc2ccc3c(c2)OCC2CC(=O)NN=C32)CCC1=O (centres unmarked) [Compound 26] | – | 0.03 | 8 | -6 | > 1000 | 2300 | – | 100 |
| O=C1C=C(Nc2ccc3c(c2)CCC2CC(=O)NN=C32)CC1 (centres unmarked) [Compound 35] | – | 0.023 | 3 | -4 | > 100 | 1600 | – | 49 |
